Reference: article PMC12221116, “Novel Quinazolinones Active against Multidrug‐Resistant Mycobacterium Tuberculosis: Synthesis, Antimicrobial Evaluation, and in Silico Exploration of Penicillin‐Binding Protein 1A as a Potential Target” (Chemmedchem, 2025)
In brackets after ≈: the same amount, converted by molar mass. Like-named read-outs stand apart in the source and are kept apart here.

Experiments:
[1] = test system: Protein RecA; design: method as in ChEMBL; conditions: target CHEMBL1741171; ref ChEMBL; cited from earlier work
[2] = test system: Staphylococcus epidermidis ATCC 12228, CCM 4418; test: Antibacterial microdilution broth, quality standards; assay type: cell-based; conditions: 24 h
[3] = test system: Staphylococcus aureus subsp. aureus ATCC 29213, CCM 4223; test: as above; assay type: cell-based; conditions: 24 h
[4] = test system: Klebsiella pneumoniae ATCC 10031, CCM 4415; test: as above; assay type: cell-based; conditions: 24 h
[5] = test system: Pseudomonas aeruginosa ATCC 27853, CCM 3955; test: as above; assay type: cell-based; conditions: 24 h
[6] = test system: Escherichia coli ATCC 25922, CCM 3954; test: as above; assay type: cell-based; conditions: 24 h
[7] = test system: Acinetobacter baumannii ATCC 19606, DSM 30007; test: as above; assay type: cell-based; conditions: 24 h
[8] = test system: Enterococcus faecalis ATCC 29212, CCM 4224; test: as above; assay type: cell-based; conditions: 24 h
[9] = test system: Staphylococcus aureus subsp. aureus, MRSA ATCC 43300, CCM 4750; test: as above; assay type: cell-based; conditions: 24 h
[10] = test system: Aspergillus flavus CCM 8363; test: Antifungal microdilution broth, quality standards; assay type: cell-based; conditions: CCM8363, 48 h; for MIC: read-out: MIC, visual detection, Aspergillus flavus
[11] = test system: Lichtheimia corymbifera CCM 8077; test: Antifungal microdilution broth, quality standards; assay type: cell-based; conditions: CCM8077, 48 h; for MIC: read-out: MIC, visual detection, Lichtheimia corymbifera
[12] = test system: Candida tropicalis ATCC 750, CCM 8264; test: Antifungal microdilution broth, quality standards; assay type: cell-based; conditions: 24 h; for MIC: read-out: MIC, visual detection, Candida tropicalis
[13] = test system: Candida albicans ATCC 24433, CCM 8320; test: Antifungal microdilution broth, quality standards; assay type: cell-based; conditions: 24 h
[14] = test system: Candida parapsilosis ATCC 22019, CCM 8260; test: Antifungal microdilution broth, quality standards; assay type: cell-based
[15] = test system: Aspergillus fumigatus ATCC 204305; test: Antifungal microdilution broth, quality standards; assay type: cell-based; conditions: ATCC204305, 48 h; for MIC: read-out: MIC, visual detection, Aspergillus fumigatus
[16] = test system: Trichophyton interdigitale ATCC 9533, CCM 8377; test: Antifungal microdilution broth, quality standards; assay type: cell-based; conditions: 120 h; for MIC: read-out: MIC, visual detection, Trichophyton interdigitale
[17] = test system: Candida krusei ATCC 6258, CCM 8271; test: Antifungal microdilution broth, quality standards; assay type: cell-based
[18] = test system: M. smegmatis; test: Microdilution broth resazurin assay, MIC; assay type: cell-based, Mycolicibacterium smegmatis; conditions: Mycolicibacterium smegmatis, read-out: Antimycobacterial Activity MIC M. smeg.
[19] = test system: MRC-5; test: cells; conditions: Homo sapiens, MRC5, 24 h, read-out: IC50 for MRC-5 [24 h]
[20] = test system: MDR Mtb H37Rv; test: microbe, parasite or virus in culture; assay type: cell-based; conditions: Mycobacterium tuberculosis, read-out: MIC MDR Mtb H37Rv
[21] = test system: Mtb H37Ra; test: Microdilution broth resazurin assay, MIC; assay type: cell-based, Mycobacterium tuberculosis; conditions: Mycobacterium tuberculosis, H37RA
[22] = test system: MRC-5; conditions: MRC-5
[23] = test system: Mtb H37Rv; test: Microplate Alamar Blue assay, MIC; assay type: cell-based, Mycobacterium tuberculosis; conditions: Mycobacterium tuberculosis, H37RV
[24] = test system: M. avium; test: Microdilution broth resazurin assay, MIC; assay type: cell-based, Mycobacterium avium; conditions: Mycobacterium avium; read-out: Antimycobacterial Activity MIC M. avium
[25] = test system: M. aurum; test: Microdilution broth resazurin assay, MIC; assay type: cell-based, Mycolicibacterium aurum; conditions: Mycolicibacterium aurum; read-out: Antimycobacterial Activity MIC M. aurum
[26] = test system: M. kansasii; test: Microplate Alamar Blue assay, MIC; assay type: cell-based, Mycobacterium kansasii; conditions: Mycobacterium kansasii; read-out: Antimycobacterial Activity MIC M. kans.
[27] = test system: Fungi; test: Antifungal microdilution screening (eight strains); assay type: cell-based; conditions: read after 24 and 48 h (72 and 120 h for TI), highest tested concentration 500 μM
[28] = test system: HepG2; conditions: HepG2
[29] = test system: HepG2; test: cells; conditions: Homo sapiens, HepG2, 24 h, read-out: IC50 for HepG2 [24 h]
[30] = test system: Bacteria, incl. SA; test: Antibacterial microdilution screening (eight strains); assay type: cell-based; conditions: read after 24 and 48 h, highest tested concentration 500 μM

## O=c1c2ccccc2nc(/C=C/c2cccnc2)n1CCc1ccccc1 [CHEMBL1366795]
[1]
  EC50: 12 µM

## CNC(C)C1CCC(N)C(OC2C(N)CC(N)C(OC3OCC(C)(O)C(NC)C3O)C2O)O1 (stereo not shown) [gentamicin]
[2]; 95% growth inhibition, read-out: MIC spectrophotometric detection, S. epidermidis
  MIC: > 8 µg/mL
[2]; naked eye, read-out: MIC visual detection, S. epidermidis
  MIC: > 8 µg/mL
[3]; 95% growth inhibition, read-out: MIC spectrophotometric detection, S. aureus
  MIC: 1 µg/mL (≈ 2.09 µM)
[3]; naked eye, read-out: MIC visual detection, S. aureus
  MIC: 1 µg/mL (≈ 2.09 µM)
[4]; 95% growth inhibition, read-out: MIC spectrophotometric detection, K. pneumoniae
  MIC: > 8 µg/mL
[4]; naked eye, read-out: MIC visual detection, K. pneumoniae
  MIC: > 8 µg/mL
[5]; 95% growth inhibition, read-out: MIC spectrophotometric detection, P. aeruginosa
  MIC: 0.5 µg/mL (≈ 1.05 µM)
[5]; naked eye, read-out: MIC visual detection, P. aeruginosa
  MIC: 0.5 µg/mL (≈ 1.05 µM)
[6]; 95% growth inhibition, read-out: MIC spectrophotometric detection, E. coli
  MIC: 1 to 2 µg/mL (≈ 2.09 to 4.19 µM)
[6]; naked eye, read-out: MIC visual detection, E. coli
  MIC: 1 to 2 µg/mL (≈ 2.09 to 4.19 µM)
[7]; 95% growth inhibition, read-out: MIC spectrophotometric detection, A. baumannii
  MIC: 2 µg/mL (≈ 4.19 µM)
[7]; naked eye, read-out: MIC visual detection, A. baumannii
  MIC: 2 µg/mL (≈ 4.19 µM)
[8]; read-out: MIC spectrophotometric detection, E. faecalis
  MIC: 16 µg/mL (≈ 33.5 µM)
[8]; naked eye, read-out: MIC visual detection, E. faecalis
  MIC: 8 µg/mL (≈ 16.8 µM)
[9]; 95% growth inhibition, read-out: MIC spectrophotometric detection, MRSA
  MIC: 16 to 32 µg/mL (≈ 33.5 to 67 µM)
[9]; naked eye, read-out: MIC visual detection, MRSA
  MIC: 16 to 32 µg/mL (≈ 33.5 to 67 µM)

## C[C@@H](c1ncncc1F)[C@](O)(Cn1cncn1)c1ccc(F)cc1F [voriconazole]
[10]; read-out: IC50, spectrophotometric detection, Aspergillus flavus
  IC50: 4 µg/mL (≈ 11.5 µM)
[10]
  MIC: > 16 µg/mL
[11]; read-out: IC50, spectrophotometric detection, Lichtheimia corymbifera
  IC50: > 16 µg/mL
[11]
  MIC: > 16 µg/mL
[12]
  MIC: > 16 µg/mL
[13]; read-out: IC50, spectrophotometric detection, Candida albicans
  IC50: 0.03 µg/mL (≈ 0.0859 µM)
[13]; read-out: MIC, visual detection, Candida albicans
  MIC: > 16 µg/mL
[14]; Lodderomyces parapsilosis, 24 h, read-out: IC50, spectrophotometric detection, Candida parapsilosis
  IC50: 0.03 µg/mL (≈ 0.0859 µM)
[14]; Lodderomyces parapsilosis, 24 h, read-out: MIC, visual detection, Candida parapsilosis
  MIC: 8 µg/mL (≈ 22.9 µM)
[15]; read-out: IC50, spectrophotometric detection, Aspergillus fumigatus
  IC50: 0.5 µg/mL (≈ 1.43 µM)
[15]
  MIC: 1 µg/mL (≈ 2.86 µM)
[16]; read-out: IC50, spectrophotometric detection, Trichophyton interdigitale
  IC50: > 16 µg/mL
[16]
  MIC: > 16 µg/mL
[17]; Pichia kudriavzevii, 24 h, read-out: MIC, visual detection, Candida krusei
  MIC: 0.5 µg/mL (≈ 1.43 µM)

## Cc1nc2cc(Cl)ccc2c(=O)n1/N=C/c1ccc(O)c([N+](=O)[O-])c1 [Compound 25]
[18]
  MIC: 31.2 µg/mL (≈ 87.1 µM)
[19]
  IC50: > 1000 µM
[20]
  MIC: 17 to 70 µM (≈ 6.1 to 25.1 µg/mL)
[21]; calculated from the measured MIC in mass concentration units, read-out: MIC Mtb H37Ra
  MIC: 87 µM
[21]; read-out: Antimycobacterial Activity MIC Mtb H37Ra
  MIC: 31.2 µg/mL
[22]
  nontoxic for human cell lines up to: up to 1000 μM
[23]; Microplate Alamar Blue assay, read-out: Antimycobacterial Activity MIC Mtb H37Rv
  MIC: 12.5 µg/mL
[23]; calculated from the measured MIC in mass concentration units, read-out: MIC Mtb H37Rv
  MIC: 35 µM
[24]
  MIC: 62.5 µg/mL (≈ 174 µM)
[25]
  MIC: ≥ 62.5 µg/mL
[26]
  MIC: > 100 µg/mL
[27]
  MIC Fungi: inactive
[28]
  nontoxic for human cell lines up to: up to 1000 μM
[29]
  IC50: > 1000 µM
[30]
  MIC Bacteria, incl. SA: inactive

## C[C@@H]1[C@H](O)[C@@H](C)/C=C/C=C/C=C/C=C/C=C/C=C/C=C/[C@H](O[C@@H]2O[C@H](C)[C@@H](O)[C@H](N)[C@@H]2O)C[C@@H]2O[C@](O)(C[C@@H](O)C[C@@H](O)[C@H](O)CC[C@@H](O)C[C@@H](O)CC(=O)O[C@H]1C)C[C@H](O)[C@H]2C(=O)O [amphotericin B]
[10]; read-out: IC90, spectrophotometric detection, Aspergillus flavus
  IC90: 8 µg/mL (≈ 8.66 µM)
[10]
  MIC: 8 µg/mL (≈ 8.66 µM)
[11]; read-out: IC90, spectrophotometric detection, Lichtheimia corymbifera
  IC90: 0.5 µg/mL (≈ 0.541 µM)
[11]
  MIC: 0.5 µg/mL (≈ 0.541 µM)
[12]; read-out: IC90, spectrophotometric detection, Candida tropicalis
  IC90: 1 µg/mL (≈ 1.08 µM)
[12]
  MIC: 1 µg/mL (≈ 1.08 µM)
[13]; read-out: IC90, spectrophotometric detection, Candida albicans
  IC90: 0.5 µg/mL (≈ 0.541 µM)
[14]; Lodderomyces parapsilosis, 24 h; read-out: IC90, spectrophotometric detection, Candida parapsilosis
  IC90: 0.5 µg/mL (≈ 0.541 µM)
[14]; Lodderomyces parapsilosis, 24 h; read-out: MIC, visual detection, Candida parapsilosis
  MIC: 0.5 µg/mL (≈ 0.541 µM)
[15]; read-out: IC90, spectrophotometric detection, Aspergillus fumigatus
  IC90: 1 µg/mL (≈ 1.08 µM)
[15]
  MIC: 1 µg/mL (≈ 1.08 µM)
[16]; 26 °C, read-out: IC90, spectrophotometric detection, Trichophyton interdigitale
  IC90: 2 µg/mL (≈ 2.16 µM)
[16]; 26 °C
  MIC: 2 µg/mL (≈ 2.16 µM)
[17]; Pichia kudriavzevii, 24 h; read-out: IC90, spectrophotometric detection, Candida krusei
  IC90: 1 µg/mL (≈ 1.08 µM)
[17]; Pichia kudriavzevii, 24 h; read-out: MIC, visual detection, Candida krusei
  MIC: 1 µg/mL (≈ 1.08 µM)
